# Assay results: patent US20120052122A1, “Treatment Of Chronic Obstructive Pulmonary Disease With Phosphodiesterase-4 Inhibitor” (Nycomed GmbH, priority 2010, published 2012)
# Where “and” joins values, the source holds several entries; their conditions need not be identical. Identical values can stand only once. Like-named read-outs stand apart in the source and are kept apart here.
# What was measured:
# [1] = tested on: patients with COPD and chronic cough and sputum production
# B6C3F1 mice = assay: Two year carcinogenicity study in B6C3F1 mice; assay type: in vivo, mouse; settings: gavage up to 12 mg/kg/day (males), 18 mg/kg/day (females), two years
# Procedure: No other treatment-related neoplastic findings were observed. Overall, the tumor-free level in the animals was 4 mg/kg/day.
# Solubility in water = assay type: physicochemical; settings: drug substance
# [2] = tested on: cytokines and reactive oxygen species from cells and lung tissue; assay: Release of inflammatory mediators in experimental animals; settings: cells and lung tissue in vitro and in vivo
# experimental animals = assay: Infiltration of leukocytes into the lungs of experimental animals
# [3] = tested on: patients with COPD and chronic cough and sputum production; remark: listed apart in the source
# From the text: Their postbronchodilator FEV1 was 50% or less than the predicted value.
# Patients could use short acting β2 agonists as needed and could continue treatment with long acting β2 agonists or short acting anti-cholinergic drugs at stable doses. However, inhaled corticosteroids and long acting anti-cholinergic drugs were not allowed during the study. Eligible patients were stratified according to their use of long acting β2 agonists and smoking status.
# The primary endpoints were the change in prebronchodilator FEV1 during treatment and the rate of COPD exacerbations, defined as moderate if they required treatment with oral or parenteral corticosteroids, or severe if they were associated with hospital admission or death. […] Additionally, data for the total number of COPD exacerbations (as defined above together with episodes treated with antibiotics alone) and a range of spirometric outcomes were gathered.
# A negative binominal regression analysis was done to assess the robustness of the results against the distributional assumptions. Data were analyzed in the two studies separately and in a pooled analysis. Changes were analyzed from baseline in prebronchodilator and postbronchodilator FEV1 using a repeated-measures analysis of covariance with all data available for patients during the 52-week treatment. (Reference 18) A Cox proportional hazard model was used to test for differences in time-to-event data. For analysis of the concentrations of C-reactive protein, an analysis of covariance model was used, with the method of the last observation carried forward for the log-transformed data for concentrations. For the regression models (analysis of covariance, Cox, and Poisson), the covariates included treatment, age, sex, smoking status (current or former smoker), country, and treatment with long acting β2 agonists. In the Cox analysis, country was included as a stratum. In the Poisson regression analysis, baseline postbronchodilator FEV1 (% of predicted value) was also included as a covariate. To address the issue of multiple comparisons, a hierarchical hypothesis-testing approach was adopted, If the primary outcomes were positive, the key secondary outcomes were tested in the order above. If a significant difference between treatments was not obtained for the primary or key secondary outcomes, all subsequent analyses were considered exploratory.
# In the one-year trials, long-acting beta-2 agonists (LABA) were allowed and used in approximately 50% of the study population. The use of inhaled corticosteroids was terminated at randomization. Lung function (pre-bronchodilator forced expiratory volume in one second, FEV1) and the rate of moderate exacerbations (requiring intervention with systemic glucocorticosteroids) or severe exacerbations (resulting in hospitalization and/or leading to death) were primary endpoints. Secondary endpoints in both studies included further evaluation of exacerbations and lung function parameters, dyspnea, and use of reliever medication.
# [4] = in vivo
# [5] = M2-124 and M2-125 pooled, 52 weeks
# [6] = M2-124 and M2-125 pooled, 52 weeks, mean
# [7] = M2-124 and M2-125 pooled, 52 weeks, mean (SE)
# [8] = M2-124 and M2-125 pooled, Roflumilast vs Placebo
# [9] = M2-124 and M2-125 pooled, Roflumilast vs Placebo, listed as roflumilast
structure (smiles),measurement,setting,value
"O=C(Nc1c(Cl)cncc1Cl)c1ccc(OC(F)F)c(OCC2CC2)c1 [Roflumilast, N-(3,5-dichloropyridin-4-yl)-3-cyclopropylmethoxy-4-difluoromethoxy-benzamide]",Change in C-reactive protein from baseline to last postrandomisation visit,[1]; M2-124,1.0; n = 691 mg/L
same,Median time to first exacerbation (moderate or severe) [IQR],[1]; M2-124,85.0 (29.5-185.5) days
same,Median time to second exacerbation (moderate or severe) [IQR],[1]; M2-124,172.0 days
same,Number of patients needed to treat to prevent one moderate or severe exacerbation per year,[1]; M2-124,5.3 and 5.29
same,"Time to mortality (mean, SD)",[1]; M2-124,213.8 days
same,"Exacerbations moderate or severe, mean rate [95% CI]","[1]; M2-124, 52 weeks","1.08 (0.96-1.21); per patient, per year"
same,"Exacerbations moderate, mean rate [95% CI]","[1]; M2-124, 52 weeks","0.94 (0.83-1.06); per patient, per year"
same,"Exacerbations severe, mean rate [95% CI]","[1]; M2-124, 52 weeks","0.11 (0.07-0.15); per patient, per year"
same,"Exacerbations treated with systemic corticosteroids, antibiotics, or both, mean rate [95% CI]","[1]; M2-124, 52 weeks","1.10 (0.98-1.23); per patient, per year"
same,Change in postbronchodillator FEV1/FVC,"[1]; M2-124, 52 weeks, mean",0.488%
same,Change in prebronchodillator FEV1/FVC,"[1]; M2-124, 52 weeks, mean",0.314%
same,Change in postbronchodillator FEF25-75,"[1]; M2-124, 52 weeks, mean (SE)",22 (6); mL/s
same,Change in postbronchodillator FEV1,"[1]; M2-124, 52 weeks, mean (SE)",57 (9); mL
same,Change in postbronchodillator FVC,"[1]; M2-124, 52 weeks, mean (SE)",76 (15); mL
same,Change in postbronchodillator PEF,"[1]; M2-124, 52 weeks, mean (SE)",8.08 (1.50); L/min
same,Change in prebronchodillator FEF25-75,"[1]; M2-124, 52 weeks, mean (SE)",19 (5); mL/s
same,Change in prebronchodillator FEV1,"[1]; M2-124, 52 weeks, mean (SE)",46 (8); mL
same,Change in prebronchodillator FVC,"[1]; M2-124, 52 weeks, mean (SE)",68 (15); mL
same,Change in prebronchodillator PEF,"[1]; M2-124, 52 weeks, mean (SE)",6.65 (1.45); L/min
same,"Adverse event Influenza, difference","[1]; M2-124, Roflumilast vs Placebo",1.13% (−0.70 to 2.95)
same,"Change in C-reactive protein from baseline to last postrandomisation visit, difference","[1]; M2-124, Roflumilast vs Placebo",Difference 1.0 (0.8 mg/L
same,"Change in postbronchodillator FEF25-75, difference","[1]; M2-124, Roflumilast vs Placebo",Difference 11 (−5 mL/s
same,"Change in postbronchodillator FEV1, difference","[1]; M2-124, Roflumilast vs Placebo",Difference 49 (26 mL
same,"Change in postbronchodillator FEV1/FVC, difference","[1]; M2-124, Roflumilast vs Placebo",Difference 0.202 (−0.343%
same,"Change in postbronchodillator FVC, difference","[1]; M2-124, Roflumilast vs Placebo",Difference 101 (63 mL
same,"Change in postbronchodillator PEF, difference","[1]; M2-124, Roflumilast vs Placebo",Difference 4.21 L/min
same,"Change in prebronchodillator FEF25-75, difference","[1]; M2-124, Roflumilast vs Placebo",Difference 17 (3 to mL/s
same,"Change in prebronchodillator FEV1, difference","[1]; M2-124, Roflumilast vs Placebo",Difference 39 (18 mL
same,"Change in prebronchodillator FEV1/FVC, difference","[1]; M2-124, Roflumilast vs Placebo",Difference 0.312 (−0.262%
same,"Change in prebronchodillator FVC, difference","[1]; M2-124, Roflumilast vs Placebo",Difference 89 (51 mL
same,"EQ-5D total score, difference","[1]; M2-124, Roflumilast vs Placebo",Difference −0.0047
same,"TDI focal score, difference","[1]; M2-124, Roflumilast vs Placebo",Difference 0.2
same,"Change in prebronchodillator FVC, difference","[1]; M2-124, Roflumilast vs Placebo, listed as roflumilast",89 mL
same,EQ-5D total score,"[1]; M2-124, mean",0.0049
same,TDI focal score,"[1]; M2-124, mean (SE)",0.7 (0.1);
same,"Adverse event Influenza, patients","[1]; M2-124, n = 769",27 (4%) number (%)
same,"Adverse event Upper respiratory tract infection, patients","[1]; M2-124, n = 769",16 (2%) number (%)
same,"Adverse event Upper respiratory tract infection, difference","[1]; human, in vivo, 52 weeks",−0.70% (−2.38 to 0.98)
same,Tumors,B6C3F1 mice,No compound-related tumors
same,Solubility in water,Solubility in water,poorly soluble
same,Release of inflammatory mediators (cytokines and reactive oxygen species),[2],suppressed
same,"Infiltration of leukocytes, in particular neutrophils, into the lungs",experimental animals,inhibited
same,Change in C-reactive protein from baseline to last postrandomisation visit,[3]; M2-124 and M2-125 pooled,1.1; n = 1371 mg/L
same,Median time to first exacerbation (moderate or severe) [IQR],[3]; M2-124 and M2-125 pooled,80.0 (28.0-190.0) days
same,Median time to second exacerbation (moderate or severe) [IQR],[3]; M2-124 and M2-125 pooled,177.0 (92.0-262.0) days
same,"Time to mortality (mean, SD)",[3]; M2-124 and M2-125 pooled,206.1 days
same,"Exacerbations moderate or severe, mean rate [95% CI]",[3]; [5],"1.14 (1.05-1.24); per patient, per year"
same,"Exacerbations moderate, mean rate [95% CI]",[3]; [5],"0.99 (0.91-1.08); per patient, per year"
same,"Exacerbations severe, mean rate [95% CI]",[3]; [5],"0.12 (0.10-0.16); per patient, per year"
same,"Exacerbations treated with systemic corticosteroids, antibiotics, or both, mean rate [95% CI]",[3]; [5],"1.13 (1.04-1.23); per patient, per year"
same,Change in postbronchodillator FEV1/FVC,[3]; [6],0.517%
same,Change in prebronchodillator FEV1/FVC,[3]; [6],0.247%
same,Change in postbronchodillator FEF25-75,[3]; [7],21 (4); mL/s
same,Change in postbronchodillator FEV1,[3]; [7],50 (6); mL
same,Change in postbronchodillator FVC,[3]; [7],67 (10); mL
same,Change in postbronchodillator PEF,[3]; [7],4.93 (1.05); L/min
same,Change in prebronchodillator FEF25-75,[3]; [7],16 (4); mL/s
same,Change in prebronchodillator FEV1,[3]; [7],40 (6); mL
same,Change in prebronchodillator FVC,[3]; [7],64 (10); mL
same,Change in prebronchodillator PEF,[3]; [7],3.69 (1.02); L/min
same,"Change in C-reactive protein from baseline to last postrandomisation visit, difference",[3]; [8],Difference 1.0 mg/L
same,"Change in postbronchodillator FEF25-75, difference",[3]; [8],Difference 19 mL/s
same,"Change in postbronchodillator FEV1, difference",[3]; [8],Difference 55 mL
same,"Change in postbronchodillator FEV1/FVC, difference",[3]; [8],Difference 0.426%
same,"Change in postbronchodillator FVC, difference",[3]; [8],Difference 101 mL
same,"Change in postbronchodillator PEF, difference",[3]; [8],Difference 4.72 L/min
same,"Change in prebronchodillator FEF25-75, difference",[3]; [8],Difference 20 mL/s
same,"Change in prebronchodillator FEV1, difference",[3]; [8],Difference 48 mL
same,"Change in prebronchodillator FEV1/FVC, difference",[3]; [8],Difference 0.393%
same,"Change in prebronchodillator FVC, difference",[3]; [8],Difference 98 mL
same,"Change in prebronchodillator PEF, difference",[3]; [8],Difference 3.53 L/min
same,"EQ-5D total score, difference",[3]; [8],0.0023
same,"TDI focal score, difference",[3]; [8],Difference 0.3
same,"Change in postbronchodillator FEV1, difference",[3]; [9],55 mL
same,"Change in prebronchodillator FEV1, difference",[3]; [9],48 mL
same,"TDI focal score, difference",[3]; [9],0.25
same,EQ-5D total score,"[3]; M2-124 and M2-125 pooled, mean",0.0072
same,TDI focal score,"[3]; M2-124 and M2-125 pooled, mean (SE)",0.7 (0.1);
same,Probability of withdrawal due to adverse events in the first 12 weeks,"[3]; human, in vivo",8%
same,Subsequent probability of withdrawal because of adverse events,"[3]; human, in vivo",9%
same,"Adverse events reported, patients","[3]; human, in vivo, 52 weeks",1040 (67%) number (%)
same,"Atrial fibrillation, patients","[3]; human, in vivo, 52 weeks",17 (1%) number (%)
same,Discontinuations associated with adverse events,"[3]; human, in vivo, 52 weeks",219 [14%] number [%]
same,Reported cardiovascular adverse events,"[3]; human, in vivo, 52 weeks",108 [7%] number [%]
same,"Serious adverse events reported, patients","[3]; human, in vivo, 52 weeks",301 (19%) number (%)
same,"Vomiting, patients","[3]; human, in vivo, 52 weeks",17 (1%) number (%)
same,Incidence of pneumonia or other pulmonary infections,[3]; in vivo,did not increase
same,Mean absolute weight change over the 1-year period,[3]; in vivo,-2.1 kg
same,Neurological or cardiac toxicity,[3]; in vivo,No significant neurological or cardiac toxicity
same,Patients with a decrease of body weight,[3]; in vivo,62%
same,"Weight loss in patients not reporting diarrhea, nausea, vomiting, or headache",[3]; in vivo,2.02 kg
same,"Weight loss in patients reporting diarrhea, nausea, vomiting, or headache",[3]; in vivo,2.60 kg
same,Number of patients experiencing a moderate exacerbation,[3]; pooled,624
same,Number of patients experiencing a severe exacerbation,[3]; pooled,157
same,"Estimated rate of moderate or severe exacerbations per patient per year, lower than placebo",[3]; pooled analysis,17%
same,"Exacerbations (excluding severe events) requiring systemic corticosteroids or antibiotics, or both, reduction vs placebo",[3]; pooled analysis,16%
same,Mean prebronchodilator FEV1 increase with long acting β2 agonist,"[3]; pooled, compared to placebo, concomitant LABA",46 mL
same,Mean prebronchodilator FEV1 increase without long acting β2 agonist,"[3]; pooled, compared to placebo, no concomitant LABA",50 mL
same,Delay of tmax by food intake,[4]; human,one
same,Plasma AUC,[4]; human,28 ugxh/L
same,Radioactivity recovered in the urine,[4]; human,about 70%
same,Reduction of Cmax by food intake,[4]; human,approximately 40%
same,"Time of maximum plasma concentrations after dosing, range",[4]; human,0.5 to 2 h
same,Time to steady state plasma concentrations,[4]; human,approximately 4 days
same,Effect of food intake on total PDE4 inhibitory activity,[4],does not affect
same,Time of maximum plasma concentrations after dosing,[4],approximately one
